System: Balb/c BMDM
Assay: Flow cytometry of marker expression on Balb/c BMDM
Assay type: cell-based, mouse
Details: 10 µM 4 h, 48 h after treatment, n = 4
Description: Figure 6 MACTIDE‐V promotes a YAP‐ mediated anti‐ tumoral switch in bone marrow‐derived macrophages. Day 5 BMDM were incubated for 4 h with 10 µM conjugates, washed, and followed‐up in media. A) YAP Immunofluorescence (shown in red) was analyzed 3 h after treatment and B) phagocytosis of fluorescent E. coli particles at 48 h follow‐up. C) Flow cytometry on BMDM 48 h after treatment. Left panel, GeoMean of MHC II, CD206, CD80, and PD‐L1 in Balb/c BMDM. Median ± interquartile range. Repeated measures one‐way ANOVA with multiple comparisons, for n = 4 independent experiments. ^* p ≤ 0.05, ^** p ≤ 0.01. D) Heatmap of the mRNA expression of genes involved in the functional activation of BMDM, YAP signaling, and adhesion, measured by real‐time PCR 48 h after treatment in BALB/c BMDM. n = 3 independent experiments. […]
At the mRNA level, MACTIDE‐V induced a clear increase in Il‐12, Chil3 and Nos2 genes, (Figure 6D, left panel). […] To further investigate whether the effect of MACTIDE‐V was mediated by YAP targeting, we analyzed a set of 7 YAP‐regulated genes (Figure 6D, right panel). […]

Substance: Vert‐Ahx‐G(CTKSIPPIC)SPGAK‐OH (disulfide) [MACTIDE‐V]
- expression of CD80 (GeoMean): no significant changes
- expression of CD206 (GeoMean): no significant changes
- expression of MHC II (GeoMean) (versus CtrlPep‐V and untreated): upregulated
- expression of PD‐L1 (GeoMean) (versus CtrlPep‐V and untreated): upregulated

Reference: article PMC11904948, “Peptide‐Drug Conjugate for Therapeutic Reprogramming of Tumor‐Associated Macrophages in Breast Cancer” (Advanced Science, 2025)
